This passage reports solubility and EC50 results from patent publication US8722849B2, “Polypeptides” (Novo Nordisk A/S, priority 2011, dated 2014).

The nature of series [1]: Assay (IV) determination of solubility. Type of series: physicochemical. The gist of the method:
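Eight 100 mM buffers (glycylglycine pH 3.0–5.0, bistrispropane pH 6.0–8.0) each received an equal volume of polypeptide dissolved in water at ~500 nmol/ml. Soluble polypeptide was measured by HPLC following 18 hours at room temperature and centrifugation.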

For series [2], the target named is T1, human calcitonin receptor (Homo sapiens, UniProt P30988).
T1 construct: expressed in transfected cells; host or cells: BHK570
T1 sequence (P30988 25-474): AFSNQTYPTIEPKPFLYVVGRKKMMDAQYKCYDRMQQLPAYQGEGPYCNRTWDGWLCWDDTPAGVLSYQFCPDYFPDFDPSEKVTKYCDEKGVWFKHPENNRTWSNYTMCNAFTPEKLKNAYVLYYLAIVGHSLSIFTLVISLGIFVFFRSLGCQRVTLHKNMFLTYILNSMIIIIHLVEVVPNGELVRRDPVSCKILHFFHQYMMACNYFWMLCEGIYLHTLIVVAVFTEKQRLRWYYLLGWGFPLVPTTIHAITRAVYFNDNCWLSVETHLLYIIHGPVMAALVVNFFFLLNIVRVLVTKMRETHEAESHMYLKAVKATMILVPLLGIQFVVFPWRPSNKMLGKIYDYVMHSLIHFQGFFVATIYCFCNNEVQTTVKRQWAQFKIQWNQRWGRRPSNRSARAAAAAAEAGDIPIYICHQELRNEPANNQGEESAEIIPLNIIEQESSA
As to the kind of experiment: Assay (II)a functional CRE-luciferase assay, human calcitonin receptor. Type of series: cell-based. The text has this:
(§1) 1. Luciferase Assay Outline
(§2) Activation of calcitonin and amylin (coexpression of calcitonin receptor and receptor activity modifying proteins (RAMP)) receptors lead to increased intracellular concentrations of cAMP. Consequently, transcription is activated by promoters containing multiple copies of the cAMP response element (CRE). It is thus possible to measure amylin activity by the use of a CRE luciferase reporter gene introduced into BHK cells also expressing calcitonin or amylin receptors.
(§3) A BHK570 cell line was stably transfected with the human calcitonin receptor and a CRE-responsive luciferase reporter gene. The cell line was further transfected with RAMP-3, using standard methods. This turns the calcitonin receptor into an amylin 3(a) receptor. Methotrexate, Neomycin, and Hygromycin are selection markers for luciferase, the calcitonin receptor, and RAMP-3, respectively.
(§4) To perform activity assays, BHK calcitonin (a) receptor- or amylin 3(a)-receptor/CRE-luc cells were seeded in white 96 well culture plates at a density of about 20.000 cells/well. […] Further, 50 μl/well of standard or sample in assay buffer were added. After 3 hours incubation at 37° C. and 5% CO2, the assay medium with standard or sample were removed and replaced by 100 μl/well PBS. Further, 100 μl/well LucLite™ was added. The plates were sealed and incubated at room temperature for 30 minutes. Finally, luminescence was measured on a TopCounter (Packard) in SPC (single photon counting) mode.

Series [3] has as its target T2, human amylin receptor (amylin 3(a) receptor: human calcitonin receptor + RAMP-3) (Homo sapiens, UniProt O60896+P30988).
T2 construct: expressed in transfected cells; host or cells: BHK570
T2 sequence (P30988 25-474): T1 sequence (P30988 25-474)
T2 sequence (O60896 24-148 partner): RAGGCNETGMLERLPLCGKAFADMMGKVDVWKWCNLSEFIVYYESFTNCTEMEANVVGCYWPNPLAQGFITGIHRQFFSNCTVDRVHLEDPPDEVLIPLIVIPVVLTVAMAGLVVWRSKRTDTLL
As to the kind of experiment: Assay (II)a functional CRE-luciferase assay, human amylin receptor. The format is cell-based.
Description: as §1, §2, §3, §4

Setting [4] is: bistrispropane buffer, pH 6, pH 6.0, read-out: Solubility pH 6.0.
Setting [5] is: bistrispropane buffer, pH 7.5, pH 7.5, read-out: Solubility pH 7.5.
[6] abbreviates: bistrispropane buffer, pH 8, pH 8.0, read-out: Solubility pH 8.0.
The mark [7] stands for this setting: glycylglycine buffer, pH 3, pH 3.0, read-out: Solubility pH 3.0.
The mark [8] stands for this setting: glycylglycine buffer, pH 4, pH 4.0, 18 hours at room temperature, Table 2, read-out: Solubility pH 4.0.
Setting [9] is: glycylglycine buffer, pH 4, pH 4.0, read-out: Solubility pH 4.0.
The mark [10] stands for this setting: glycylglycine buffer, pH 5, pH 5.0, read-out: Solubility pH 5.0.
Setting [11] is: Table 7, human calcitonin (CTa) receptor.
[12] abbreviates: Table 2, BHK amylin 3(a)-receptor/CRE-luc cells.

The solubility is the dissolved amount per volume that the medium holds. For orientation: pEC50 means −log10 of the EC50, conventionally taken in molar units.

pEC50: −log10 of the molar value. In brackets after ≈: the same amount, converted by molar mass. Where two headings read alike, the source gives them in different places. Starred links: 1 amine or outer side, 2 acyl side, 3 side chain; linkers in the order of their positions; H or OH if unused. Positions of bridges follow the written chain, without caps; N, C: chain ends. Residues, ends and D or L forms follow the SMILES beside them. *: point of attachment. C20 diacid = O=C(O)CCCCCCCCCCCCCCCCCCC(=O)*; γGlu = O=C(O)[C@H](CCC(=O)[*:2])N[*:1]; AEEA = NCCOCCOCC(=O)O

Take `CC[C@H](C)[C@H](NC(=O)[C@@H]1CCCN1C(=O)CNC(=O)[C@H](Cc1ccccc1)NC(=O)[C@H](CC(N)=O)NC(=O)[C@H](CC(N)=O)NC(=O)[C@H](CO)NC(=O)[C@H](CO)NC(=O)[C@H](Cc1cnc[nH]1)NC(=O)[C@H](Cc1cnc[nH]1)NC(=O)[C@H](CC(C)C)NC(=O)[C@H](Cc1ccccc1)NC(=O)[C@H](CCC(=O)O)NC(=O)[C@H](C)NC(=O)[C@H](CC(C)C)NC(=O)[C@H](CCCNC(=N)N)NC(=O)[C@H](CCC(N)=O)NC(=O)[C@@H](NC(=O)[C@H](C)NC(=O)[C@@H]1CSSC[C@H](NC(=O)CC[C@H](NC(=O)CCCCCCCCCCCCCCCCCCC(=O)O)C(=O)O)C(=O)N[C@@H](CC(N)=O)C(=O)N[C@@H]([C@@H](C)O)C(=O)N[C@@H](C)C(=O)N[C@@H]([C@@H](C)O)C(=O)N1)[C@@H](C)O)C(=O)N[C@@H](CC(C)C)C(=O)N1CCC[C@H]1C(=O)N1CCC[C@H]1C(=O)N[C@H](C(=O)N[C@@H](CC(N)=O)C(=O)N[C@H](C(=O)NCC(=O)N[C@@H](CO)C(=O)N[C@@H](CC(N)=O)C(=O)N[C@H](C(=O)N[C@@H](Cc1ccc(O)cc1)C(N)=O)[C@@H](C)O)C(C)C)[C@@H](C)O` [Example 28, N-alpha-[(S)-4-Carboxy-4-(19-carboxynonadecanoylamino)butyryl]-[des1,Glu14,His17]-pramlintide] ({C20 diacid-γGlu}-CNTATCATQRLAEFLHHSSNNFGPILPPTNVGSNTY-NH2; disulfide 1-6): the solubility at 18 h in series [1] (setting [4]) was more than 200 µM; in series [1] (bistrispropane buffer, pH 6.5, pH 6.5, read-out: Solubility pH 6.5) it was more than 200 µM; in series [1] (bistrispropane buffer, pH 7, pH 7.0, 18 hours at room temperature, Table 3, read-out: Solubility pH 7.0) it was more than 200 µM; in series [1] (bistrispropane buffer, pH 7, pH 7.0, read-out: Solubility pH 7.0), more than 200 µM; in series [1] (setting [5]), more than 200 µM; in series [1] (setting [6]), more than 200 µM. The solubility at 18 h in series [1] (setting [7]), in series [1] (setting [8]), in series [1] (setting [9]) and in series [1] (setting [10]) was more than 200 µM throughout. For the same molecule, the figures for the pEC50 in series [2] (setting [11]) and in series [3] (setting [12]) were 9.59 and 9.75, respectively.

`CC(C)C[C@H](NC(=O)[C@H](CCCNC(=N)N)NC(=O)[C@H](CCC(N)=O)NC(=O)[C@@H](NC(=O)[C@H](C)NC(=O)[C@@H]1CSSC[C@H](NC(=O)[C@H](Cc2cnc[nH]2)NC(=O)CC[C@H](NC(=O)CCCCCCCCCCCCCCCCCCC(=O)O)C(=O)O)C(=O)N[C@@H](CC(N)=O)C(=O)N[C@@H]([C@@H](C)O)C(=O)N[C@@H](C)C(=O)N[C@@H]([C@@H](C)O)C(=O)N1)[C@@H](C)O)C(=O)N[C@@H](C)C(=O)N[C@@H](CCC(=O)O)C(=O)N[C@@H](Cc1ccccc1)C(=O)N[C@@H](CC(C)C)C(=O)N[C@@H](Cc1cnc[nH]1)C(=O)N[C@@H](CCCNC(=N)N)C(=O)N[C@@H](CO)C(=O)N[C@@H](CO)C(=O)N[C@@H](CC(N)=O)C(=O)N[C@@H](CC(N)=O)C(=O)N[C@@H](Cc1ccccc1)C(=O)NCC(=O)N[C@@H](C)C(=O)N1CCC[C@H]1C(=O)N[C@@H](CC(C)C)C(=O)N[C@@H](CO)C(=O)N[C@@H](CO)C(=O)N[C@H](C(=O)N[C@@H](CC(N)=O)C(=O)N[C@H](C(=O)NCC(=O)N[C@@H](CO)C(=O)N[C@@H](CC(N)=O)C(=O)N[C@H](C(=O)N[C@@H](Cc1ccc(O)cc1)C(N)=O)[C@@H](C)O)C(C)C)[C@@H](C)O` [Example 6, N-alpha-[(S)-4-Carboxy-4-(19-carboxynonadecanoylamino)butyryl]-[His1,Glu14,His17,Arg18,Ala25,Pro26,Ser28,Ser29]-pramlintide] ({C20 diacid-γGlu}-HCNTATCATQRLAEFLHRSSNNFGAPLSSTNVGSNTY-NH2; disulfide 2-7): the solubility at 18 h is 12 µM (≈ 53.1 µg/mL) in series [1] (setting [4]); 18 µM (≈ 79.6 µg/mL) in series [1] (setting [5]); 48 µM (≈ 212 µg/mL) in series [1] (setting [6]); more than 200 µM in series [1] (setting [7]); 163 µM (≈ 721 µg/mL) in series [1] (setting [8]); 163 µM (≈ 721 µg/mL) in series [1] (setting [9]). Also, the solubility at 18 h in series [1] (setting [10]) came to 168 µM (≈ 743 µg/mL); in series [1] (pH 6.5, read-out: Solubility pH 6.5), 4 µM (≈ 17.7 µg/mL); in series [1] (pH 7.0, read-out: Solubility pH 7.0) it was 7 µM (≈ 31 µg/mL). The pEC50 in series [2] (setting [11]) was 9.62; in series [3] (setting [12]) it was 9.94.

Regarding `CC[C@H](C)[C@H](NC(=O)[C@@H]1CCCN1C(=O)CNC(=O)[C@H](Cc1ccccc1)NC(=O)[C@H](CC(N)=O)NC(=O)[C@H](CCCCN)NC(=O)[C@H](CO)NC(=O)[C@H](CO)NC(=O)[C@H](Cc1c[nH]cn1)NC(=O)[C@H](Cc1c[nH]cn1)NC(=O)[C@H](CC(C)C)NC(=O)[C@H](Cc1ccccc1)NC(=O)[C@H](CCC(=O)O)NC(=O)[C@H](C)NC(=O)[C@H](CC(C)C)NC(=O)[C@H](CCCNC(=N)N)NC(=O)[C@H](CCC(N)=O)NC(=O)[C@@H](NC(=O)[C@H](C)NC(=O)[C@@H]1CSSC[C@H](NC(=O)[C@H](CCCCN)NC(=O)COCCOCCNC(=O)COCCOCCNC(=O)CC[C@H](NC(=O)CCCCCCCCCCCCCCCCCCC(=O)O)C(=O)O)C(=O)N[C@@H](CC(N)=O)C(=O)N[C@@H]([C@@H](C)O)C(=O)N[C@@H](C)C(=O)N[C@@H]([C@@H](C)O)C(=O)N1)[C@@H](C)O)C(=O)N[C@@H](CC(C)C)C(=O)N1CCC[C@H]1C(=O)N1CCC[C@H]1C(=O)N[C@H](C(=O)N[C@@H](CC(N)=O)C(=O)N[C@H](C(=O)NCC(=O)N[C@@H](CO)C(=O)N[C@@H](CC(N)=O)C(=O)N[C@H](C(=O)N1CCC[C@H]1C(N)=O)[C@@H](C)O)C(C)C)[C@@H](C)O` [Example 168, N-alpha-[2-(2-{2-[2-(2-{2-[(S)-4-Carboxy-4-(19-carboxyheptadecanoylamino)butyrylamino]ethoxy}ethoxy)acetylamino]ethoxy}ethoxy)acetyl]-[Glu14,His17,Lys21,Pro37]-pramlintide] ({C20 diacid-γGlu-AEEA-AEEA}-KCNTATCATQRLAEFLHHSSKNFGPILPPTNVGSNTP-NH2; disulfide 2-7), the solubility is more than 200 µM in series [1] (pH 3, pH 3.0, read-out: Solubility pH 3.0); more than 200 µM in series [1] (pH 4, pH 4.0, 18 hours at room temperature, Table 2, read-out: Solubility pH 4.0); more than 200 µM in series [1] (pH 4, pH 4.0, read-out: Solubility pH 4.0); more than 200 µM in series [1] (pH 5, pH 5.0, read-out: Solubility pH 5.0); more than 200 µM in series [1] (pH 6, pH 6.0, read-out: Solubility pH 6.0); more than 200 µM in series [1] (pH 6.5, pH 6.5, read-out: Solubility pH 6.5). Besides, the solubility in series [1] (pH 7, pH 7.0, 18 hours at room temperature, Table 3, read-out: Solubility pH 7.0) was more than 200 µM; in series [1] (pH 7, pH 7.0, read-out: Solubility pH 7.0), more than 200 µM; in series [1] (pH 7.5, pH 7.5, read-out: Solubility pH 7.5) it was more than 200 µM; in series [1] (pH 8, pH 8.0, read-out: Solubility pH 8.0), more than 200 µM. The pEC50 is 10.07 in series [2] (setting [11]); 10.07 in series [2] (Table 11, read-out: CTa receptor human EC50); 10.15 in series [3] (setting [12]); 10.15 in series [3] (Table 3, BHK amylin 3(a)-receptor/CRE-luc cells); 10.15 in series [3] (Table 4); 10.15 in series [3] (Table 6, human amylin receptor). The pEC50 was 10.15 in series [3] (Table 7, human amylin receptor) and 10.15 in series [3] (Table 11).
